Assay results: patent US7160907B2, “Pleuromutilin derivatives” (SmithKline Beecham P.L.C., priority 2000, dated 2007)

What was measured:
Format in all cases: cell-based
[1] = tested on: Streptococcus pneumoniae 1629; assay: conventional MIC assay, Streptococcus pneumoniae 1629; conditions: against Streptococcus pneumoniae 1629
Experimental: (§1) Compounds of the present invention were assessed for anti-bacterial activity in a conventional MIC assay against a range of pathogenic organisms.

[2] = tested on: Haemophilus influenzae Q1; assay: conventional MIC assay, Haemophilus influenzae Q1; conditions: against Haemophilus influenzae Q1
Experimental: as §1

[3] = tested on: Staphylococcus aureus Oxford; assay: conventional MIC assay, Staphylococcus aureus Oxford; conditions: against Staphylococcus aureus Oxford
Experimental: as §1

[4] = tested on: Moraxella catarrhalis 1502; assay: conventional MIC assay, Moraxella catarrhalis 1502; conditions: against Moraxella catarrhalis 1502
Experimental: as §1

| MIC [1] [µg/mL] | MIC [2] [µg/mL] | MIC [3] [µg/mL] | MIC [4] [µg/mL] | SMILES |
| --- | --- | --- | --- | --- |
| ≤ 4 | ≤ 4 | ≤ 4 | ≤ 4 | C=C[C@]1(C)C[C@@H](OC(=O)NC(=O)OCCN2CCN(S(N)(=O)=O)CC2)[C@]2(C)[C@H](C)CC[C@]3(CCC(=O)[C@H]32)[C@@H](C)[C@@H]1O [Example 121] |
| ≤ 4 | ≤ 4 | ≤ 4 | ≤ 4 | C=C[C@]1(C)C[C@@H](OC(=O)NC(=O)O[C@@H]2CO[C@H]3[C@@H]2OC[C@@H]3N)[C@]2(C)[C@H](C)CC[C@]3(CCC(=O)[C@H]32)[C@@H](C)[C@@H]1O [Example 122, Mutilin 14-[N-(((3R,3aR,6S,6aR)-6-amino-hexahydrofuro[3,2-b]furan-3-yl)oxycarbonyl)]carbamate] |
| ≤ 4 | ≤ 4 | ≤ 4 | ≤ 4 | C=C[C@]1(C)C[C@@H](OC(=O)NC(=O)O[C@@H]2CCN(CC#N)C2)[C@]2(C)[C@H](C)CC[C@]3(CCC(=O)[C@H]32)[C@@H](C)[C@@H]1O [Example 123, Mutilin 14-[N-(1-cyanomethylpyrrolidin-3-(R)-yloxycarbonyl)]carbamate] |
| ≤ 4 | ≤ 4 | ≤ 4 | ≤ 4 | C=C[C@]1(C)C[C@@H](OC(=O)NC(=O)O[C@H]2CN[C@H](C#N)C2)[C@]2(C)[C@H](C)CC[C@]3(CCC(=O)[C@H]32)[C@@H](C)[C@@H]1O [Example 126, Mutilin 14-[N-(5-(S)-cyanopyrrolidin-3-(R)-yloxycarbonyl)]carbamate] |
| ≤ 4 | ≤ 4 | ≤ 4 | ≤ 4 | C=C[C@]1(C)C[C@@H](OC(=O)NC(=O)OC2CN(CC(N)=O)C2)[C@]2(C)[C@H](C)CC[C@]3(CCC(=O)[C@H]32)[C@@H](C)[C@@H]1O [Example 128, Mutilin 14-[N-(1-carbamoylmethylazetidin-3-yloxycarbonyl)]-carbamate] |
| ≤ 4 | ≤ 4 | ≤ 4 | ≤ 4 | C=C[C@]1(C)C[C@@H](OC(=O)NC(=O)OC2CN(CC#N)C2)[C@]2(C)[C@H](C)CC[C@]3(CCC(=O)[C@H]32)[C@@H](C)[C@@H]1O [Example 129, Mutilin 14-[N-(1-cyanomethylazetidin-3-yloxycarbonyl)]-carbamate] |
| ≤ 4 | ≤ 4 | ≤ 4 | ≤ 4 | C=C[C@]1(C)C[C@@H](OC(=O)NC(=O)OC2CN(N)C2)[C@]2(C)[C@H](C)CC[C@]3(CCC(=O)[C@H]32)[C@@H](C)[C@@H]1O [Example 130, Mutilin 14-[N-(1-aminoazetidin-3-yloxycarbonyl)]-carbamate] |

The next lines start with the compound.

| SMILES | MIC [1] [µg/mL] | MIC [2] [µg/mL] | MIC [3] [µg/mL] | MIC [4] [µg/mL] |
| --- | --- | --- | --- | --- |
| C=C[C@]1(C)C[C@@H](OC(=O)NC(=O)O[C@H]2COC[C@H]2OC(N)=O)[C@]2(C)[C@H](C)CC[C@]3(CCC(=O)[C@H]32)[C@@H](C)[C@@H]1O (racemic) [Example 118, Mutilin 14-[N-(cis-4-carbamoyloxytetrahydrofuran-3-yloxycarbonyl)]carbamate] | ≤ 4 | ≤ 4 | ≤ 4 | ≤ 4 |
| C=C[C@]1(C)C[C@@H](OC(=O)NC(=O)OCc2ncc(C(N)=O)c(N)n2)[C@]2(C)[C@H](C)CC[C@]3(CCC(=O)[C@H]32)[C@@H](C)[C@@H]1O [Example 116, Mutilin 14-[N-(4-amino-5-carboxamidopyrimidin-2-ylmethoxycarbonyl)]carbamate] | ≤ 4 | ≤ 4 | ≤ 4 | ≤ 4 |
| C=C[C@]1(C)C[C@@H](OC(=O)NC(=O)OCS(C)(=O)=O)[C@]2(C)[C@H](C)CC[C@]3(CCC(=O)[C@H]32)[C@@H](C)[C@@H]1O [Example 117, Mutilin 14-[N-(methylsulfonylmethoxycarbonyl)]carbamate] | ≤ 4 | ≤ 4 | ≤ 4 | ≤ 4 |
| C=C[C@]1(C)C[C@@H](OC(=O)NC(=O)OCc2cnc(N)c(C(N)=O)n2)[C@]2(C)[C@H](C)CC[C@]3(CCC(=O)[C@H]32)[C@@H](C)[C@@H]1O [Example 119] | ≤ 4 | ≤ 4 | ≤ 4 | ≤ 4 |
| C=C[C@]1(C)C[C@@H](OC(=O)NC(=O)OCCN2CCN(C=O)CC2)[C@]2(C)[C@H](C)CC[C@]3(CCC(=O)[C@H]32)[C@@H](C)[C@@H]1O [Example 120, Mutilin 14-[N-(2-(4-formylpiperazin-1-yl)ethyloxycarbonyl)]carbamate] | ≤ 4 | ≤ 4 | ≤ 4 | ≤ 4 |
